Test results as given in patent US12492173B2, “Herbicidal substituted N-tetrazolyl aryl carboxamides” (Bayer Aktiengesellschaft, priority 2019, dated 2025).

Columns and labels:
Format in all cases: in vivo
Setaria viridis [1] = assay: Pre-emergence herbicidal action, SETVI; design: key to Herbicidal action against SETVI: % activity: 100 = plants have died, 0 = like control plants; conditions: for herbicidal activity SETVI / herbicidal action SETVI: dosage 320 g/ha; for herbicidal activity SETVI: scored visually after 3 weeks vs untreated controls (100% = plants have died); for Herbicidal action against SETVI: comparative experiment
In short: (§1)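 Visual scoring after 3 weeks in the greenhouse, relative to untreated pots, gave percent activity, where 100% means dead plants and 0% equals controls. Treatment was a pre-emergence soil-surface spray of WP or EC formulations in water (600 to 800 l/ha, 0.2% wetting agent) over seeds covered in sandy loam.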

Viola tricolor = assay: Pre-emergence herbicidal action, VIOTR; design: key to Herbicidal action against VIOTR: % activity: 100 = plants have died, 0 = like control plants; conditions: for herbicidal activity VIOTR / herbicidal action VIOTR: dosage 320 g/ha; for herbicidal activity VIOTR: scored visually after 3 weeks vs untreated controls (100% = plants have died); for Herbicidal action against VIOTR: comparative experiment, 20 g of a.i./ha
In short: as §1

Amaranthus retroflexus = assay: Post-emergence herbicidal action, AMARE; design: key: % herbicidal action vs untreated; 100 = plants died, 0 = like control
In short: (§2)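 Greenhouse post-emergence test: weeds sown in sandy loam were sprayed once at one leaf, 2 to 3 weeks from sowing, with aqueous WP or EC preparations carrying 0.2% wetting agent. Effect is scored visually after about 3 weeks.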

Setaria viridis [2] = assay: Post-emergence herbicidal action, SETVI; design: key: % herbicidal action vs untreated; 100 = plants died, 0 = like control
In short: as §2

Stellaria media = assay: Post-emergence herbicidal action, STEME; design: key: % herbicidal action vs untreated; 100 = plants died, 0 = like control
In short: as §2

Veronica persica = assay: Post-emergence herbicidal action, VERPE; design: key: % herbicidal action vs untreated; 100 = plants died, 0 = like control
In short: as §2

[3] = comparative experiment, post-emergence, 20 g of a.i./ha
[4] = comparative experiment, post-emergence, 5 g of a.i./ha

| SMILES | herbicidal activity SETVI (Setaria viridis [1]) [%] | herbicidal activity VIOTR (Viola tricolor) [%] | herbicidal action AMARE (Amaranthus retroflexus; Dosage 80 g/ha) | herbicidal action SETVI (Setaria viridis [2]; Dosage 80 g/ha) | herbicidal action STEME (Stellaria media; Dosage 80 g/ha) | herbicidal action VERPE (Veronica persica; Dosage 80 g/ha) | herbicidal action VIOTR (Viola tricolor) [%] | also measured |
| --- | --- | --- | --- | --- | --- | --- | --- | --- |
| CC[S+]([O-])Cc1c(C(F)(F)F)ccc(C(=O)Nc2nnnn2C)c1Cl (racemic) [Example 1-300] | 100 | 100 | – | – | – | – | – | herbicidal action AMARE (Amaranthus retroflexus; post-emergence, dosage 80 g/ha): 100%; herbicidal action SETVI (Setaria viridis [2]; post-emergence, dosage 80 g/ha): 90%; herbicidal action STEME (Stellaria media; post-emergence, dosage 80 g/ha): 100%; herbicidal action VERPE (Veronica persica; post-emergence, dosage 80 g/ha): 100% |
| Cn1nnnc1NC(=O)c1ccc(I)c(C[S+](C)[O-])c1Cl (racemic) [Example 1-363] | 100 | 100 | – | – | – | – | – | Herbicidal action against SETVI (Setaria viridis [1]; 20 g of a.i./ha): 90; herbicidal action AMARE (Amaranthus retroflexus; post-emergence, dosage 80 g/ha): 100%; herbicidal action SETVI (Setaria viridis [2]; post-emergence, dosage 80 g/ha): 100%; herbicidal action STEME (Stellaria media; post-emergence, dosage 80 g/ha): 100%; herbicidal action VERPE (Veronica persica; post-emergence, dosage 80 g/ha): 100% |
| COCC[S+]([O-])Cc1c(C(F)(F)F)ccc(C(=O)Nc2nnnn2C)c1Cl (racemic) [Example 1-306] | 90 | 100 | 100 | 90 | 90 | 90 | – | – |
| CCS(=O)(=O)c1c(C(F)(F)F)ccc(C(=O)Nc2nnnn2C)c1Br [Example V-13, 2-bromo-3-(ethylsulfonyl)-N-(1-methyl-1-1H-tetrazol-5-yl)-4-(trifluoromethyl)benzamide, reference compound] | – | – | – | – | – | – | – | Herbicidal action against SETVI (Setaria viridis [1]; 80 g of a.i./ha): 0; Herbicidal action against AMARE (Amaranthus retroflexus; [3]): 0; Herbicidal action against SETVI (Setaria viridis [2]; [3]): 0; Herbicidal action against STEME (Stellaria media; [3]): 0; Herbicidal action against VERPE (Veronica persica; [3]): 0 |
| CCSCc1c(C(F)(F)F)ccc(C(=O)Nc2nnnn2C)c1SCC [Example 1-182] | 100 | 100 | 90 | 90 | 100 | 100 | – | Herbicidal action against VIOTR (Viola tricolor): 80; Herbicidal action against AMARE (Amaranthus retroflexus; [4]): 80; Herbicidal action against SETVI (Setaria viridis [2]; [4]): 70; Herbicidal action against STEME (Stellaria media; [4]): 90; Herbicidal action against VERPE (Veronica persica; [4]): 100 |
| CCn1nnnc1NC(=O)c1ccc(Cl)c(CSC)c1Cl [Example 2-559] | – | – | 100 | 100 | 100 | 100 | 100 | herbicidal action SETVI (Setaria viridis [1]): 90% |
| Cc1c(C(=O)Nc2nnnn2C)ccc(C(F)F)c1C[S+](C)[O-] (centres unmarked) [Example 1-108] | – | – | 100 | 80 | 100 | 100 | 100 | herbicidal action SETVI (Setaria viridis [1]): 100% |
| CCn1nnnc1NC(=O)c1ccc(C(F)F)c(CSC)c1Cl [Example 2-320] | 100 | 100 | 100 | 100 | 100 | 100 | – | – |
| CCn1nnnc1NC(=O)c1ccc(C(F)F)c(CS(=O)(=O)CC)c1Cl [Example 2-325] | 100 | 100 | 90 | 100 | 100 | 90 | – | – |
| CCSCc1c(C(F)F)ccc(C(=O)Nc2nnnn2C)c1Cl [Example 1-323] | 100 | 100 | – | – | – | – | – | herbicidal action AMARE (Amaranthus retroflexus; post-emergence, dosage 80 g/ha): 90%; Herbicidal action against SETVI (Setaria viridis [2]; [4]): 100; herbicidal action SETVI (Setaria viridis [2]; post-emergence, dosage 80 g/ha): 100%; herbicidal action STEME (Stellaria media; post-emergence, dosage 80 g/ha): 100%; herbicidal action VERPE (Veronica persica; post-emergence, dosage 80 g/ha): 100% |
| CCCn1nnnc1NC(=O)c1ccc(C(F)F)c(C[S+](C)[O-])c1SC (centres unmarked) [Example 3-171] | 100 | 100 | 100 | – | 100 | 100 | – | – |
| COc1c(C(=O)Nc2nnnn2C)ccc(C(F)(F)F)c1C[S+](C)[O-] (centres unmarked) [Example 1-135] | – | – | 100 | 100 | 90 | 100 | 90 | – |
| Cc1ccc(C(=O)Nc2nnnn2C)c(Cl)c1C[S+](C)[O-] (racemic) [Example 1-288] | – | – | 100 | 100 | 100 | 100 | 90 | – |
| CCCn1nnnc1NC(=O)c1ccc(C(F)(F)F)c(C[S+](C)[O-])c1OC (centres unmarked) [Example 3-135] | – | – | 100 | 100 | 100 | – | 100 | herbicidal action SETVI (Setaria viridis [1]): 100% |
| CCCn1nnnc1NC(=O)c1ccc(S(C)(=O)=O)c(CSC)c1C [Example 3-37] | – | – | 100 | 90 | 100 | 100 | 100 | – |
| CCCn1nnnc1NC(=O)c1ccc(C(F)(F)F)c(CS(=O)(=O)CC)c1Cl [Example 3-301] | – | – | – | 90 | 100 | 80 | 100 | herbicidal action SETVI (Setaria viridis [1]): 100% |
| CCCn1nnnc1NC(=O)c1ccc(C(F)F)c(CS(=O)(=O)CC)c1Cl [Example 3-325] | 100 | 100 | – | 100 | 100 | – | – | – |
| CCCn1nnnc1NC(=O)c1ccc(C(F)(F)F)c(CS(C)(=O)=O)c1Br [Example 3-382] | – | – | 100 | 100 | 100 | 90 | 90 | – |
| CCCn1nnnc1NC(=O)c1ccc(C(F)F)c(CS(C)(=O)=O)c1SC [Example 3-172] | 100 | 100 | 100 | – | 100 | 100 | – | – |
| CCCn1nnnc1NC(=O)c1ccc(C(F)F)c(CSC)c1SC [Example 3-170] | 100 | 100 | 100 | – | 100 | 90 | – | – |
| CCCn1nnnc1NC(=O)c1ccc(C(F)(F)F)c(CSCC)c1C [Example 3-86] | – | – | – | 90 | 100 | 80 | 100 | herbicidal action SETVI (Setaria viridis [1]): 90% |
| CCS(=O)(=O)Cc1c(C(F)F)ccc(C(=O)Nc2nnnn2C)c1Cl [Example 1-325] | 100 | 100 | – | 100 | 100 | 100 | – | – |
| COc1c(C(=O)Nc2nnnn2C)ccc(Cl)c1CSC [Example 1-570] | – | – | – | – | – | – | 80 | Herbicidal action against VIOTR (Viola tricolor): 70; Herbicidal action against AMARE (Amaranthus retroflexus; post-emergence, dosage 80 g/ha): 90; Herbicidal action against SETVI (Setaria viridis [2]; post-emergence, dosage 80 g/ha): 80; Herbicidal action against STEME (Stellaria media; post-emergence, dosage 80 g/ha): 80; Herbicidal action against VERPE (Veronica persica; post-emergence, dosage 80 g/ha): 90 |
